According to patent publication US20230241233A1, “ORAL PHARMACEUTICAL COMPOSITIONS COMPRISING LIPID CONJUGATES” (UNIVERSITAT HEIDELBERG, priority 2020, published 2023):

Tests used:
[1] = Pharmacokinetic evaluation of octreotide lipid conjugate in beagle dogs (Charles River Study No 47656 PAC); type: in vivo; conditions: dog, plasma, conjugate dose 0 mg, oral gavage octreotide 0.12 mg/kg, vs iv bolus 0.01 mg/kg, read-out: abs. bioavailability
Method: Between the cycles, a washout phase of one week was performed.
First, animals received an intravenous bolus injection of 0.01 mg/kg octreotide. The consecutive administrations were given orally by gavage. After a wash-out of one week animals #1 and #2 received 0.12 mg/kg free octreotide and animals #3 and #4 received 0.12 mg/kg octreotide with 0.3 mg/kg lipid-conjugate. After a wash-out of one week animals #1 and #2 received 0.12 mg/kg free octreotide with 1 mg/kg lipid-conjugate and animals #3 and #4 received 0.12 mg/kg octreotide with 3 mg/kg lipid-conjugate. After a wash-out of one week animals #1 and #2 received 0.12 mg/kg free octreotide with 10 mg/kg lipid-conjugate and animals #3 and #4 received 0.12 mg/kg octreotide with 30 mg/kg lipid-conjugate. After a wash-out of one week animals #1 and #2 received 0.012 mg/kg free octreotide with 1 mg/kg lipid-conjugate and animals #3 and #4 received 1.2 mg/kg octreotide with 1 mg/kg lipid-conjugate.

[2] = Bioavailability of octreotide SEDDS formulation in beagle dogs; conditions: dog, plasma, oral, 1.5 mg/animal
Method: The administration of octreotide in SEDDS formulation was investigated in a study in beagle dogs at Charles River, Evreux, France (Study No 47656 PAC and 48482 PAC). […] Animals were treated with octreotide in SEDDs formulation, or octreotide alone, prepared in citrate buffer (100 mM, pH 5.5), by single oral administration via gavage. For determination of the absolute bioavailability plasma concentrations after intravenous bolus injection (in PBS) were determined. Between the cycles, a wash-out phase of one week was performed.
Plasma concentrations of all investigated peptide therapeutics were determined by quantification using a validated UPLC-MS/MS assay (according to the pertinent recommendations for bioanalytical method development of the US FDA and EMA). All assays were performed on a Waters Xevo TQ-XS triple quadrupole tandem mass spectrometer coupled to a Waters Acquity classic UPLC using C18 columns, heated electrospray ionization (ESI), and selected ion monitoring in the positive ion mode.

Compound: C[C@@H](O)[C@@H]1NC(=O)[C@H](CCCCN)NC(=O)[C@@H](Cc2c[nH]c3ccccc23)NC(=O)[C@H](Cc2ccccc2)NC(=O)[C@@H](NC(=O)[C@H](N)Cc2ccccc2)CSSC[C@@H](C(=O)N[C@H](CO)[C@@H](C)O)NC1=O [octreotide]
- bioavailability [1]: 2.1%
- bioavailability [2]: 2.1%
